Test system: 922993-354-T-J3-PDC complex spheroid viability
Assay: Anticancer human tumor 922993-354-T-J3-PDC patient-derived endometrial carcinoma cell line growth inhibition [POLQ]
Settings: for IC50: curve of first compound; for viability, T/C: stronger effect = lower value
Summary of the method: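 PDC + HUVEC + MSC complex spheroids; POLQ inhibitors ± partner drugs; top conc. at/near clinical Cmax, else 10 microM (SN-38 1 microM), half-log dilutions; 37 degrees C, 5% CO2.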

[1] = second compound 0.0316 µM, first compound 0.0316 µM
[2] = second compound 0.0316 µM, first compound 0.1 µM
[3] = second compound 0.0316 µM, first compound 0.316 µM
[4] = second compound 0.0316 µM, first compound 1 µM
[5] = second compound 0.0316 µM, first compound 3.16 µM
[6] = second compound 0.0316 µM, first compound 10 µM
[7] = second compound 0.1 µM, first compound 0.0316 µM
[8] = second compound 0.1 µM, first compound 0.1 µM
[9] = second compound 0.1 µM, first compound 0.316 µM
[10] = second compound 0.1 µM, first compound 1 µM
[11] = second compound 0.1 µM, first compound 3.16 µM
[12] = second compound 0.1 µM, first compound 10 µM
[13] = second compound 0.316 µM, first compound 0.0316 µM
[14] = second compound 0.316 µM, first compound 0.1 µM
[15] = second compound 0.316 µM, first compound 0.316 µM
[16] = second compound 0.316 µM, first compound 1 µM
[17] = second compound 0.316 µM, first compound 3.16 µM
[18] = second compound 0.316 µM, first compound 10 µM
[19] = second compound 1 µM, first compound 0.0316 µM
[20] = second compound 1 µM, first compound 0.1 µM
[21] = second compound 1 µM, first compound 0.316 µM
[22] = second compound 1 µM, first compound 1 µM
[23] = second compound 1 µM, first compound 3.16 µM
[24] = second compound 1 µM, first compound 10 µM
[25] = second compound 3.16 µM, first compound 0.0316 µM
[26] = second compound 3.16 µM, first compound 0.1 µM
[27] = second compound 3.16 µM, first compound 0.316 µM
[28] = second compound 3.16 µM, first compound 1 µM
[29] = second compound 3.16 µM, first compound 3.16 µM
[30] = second compound 3.16 µM, first compound 10 µM
[31] = second compound 10 µM, first compound 0.0316 µM
[32] = second compound 10 µM, first compound 0.1 µM
[33] = second compound 10 µM, first compound 0.316 µM
[34] = second compound 10 µM, first compound 1 µM
[35] = second compound 10 µM, first compound 3.16 µM
[36] = second compound 10 µM, first compound 10 µM
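Further: spheroids exposed to the agents for one week.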
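Wherever viability, T/C is given: 100% = DMSO vehicle control wells.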

Structure (SMILES): COc1cc(C2c3cc4c(cc3C(OC3OC5COC(C)OC5C(O)C3O)C3COC(=O)C23)OCO4)cc(OC)c1O (stereo unspecified) + Cc1cccc(N(C)C(=O)C2C(O)CCN2c2nc(C)cc(C(F)(F)F)c2C#N)c1
- IC50 (second compound 0.0316 µM): 8.07 µM
- IC50 (second compound 0.1 µM): 6.05 µM
- IC50 (second compound 0.316 µM): 8.24 µM
- IC50 (second compound 1 µM): 8.49 µM
- IC50 (second compound 3.16 µM): 6.33 µM
- IC50 (second compound 10 µM): 1.72 µM
- viability, T/C [1]: 101%
- viability, T/C [2]: 90%
- viability, T/C [3]: 91.2%
- viability, T/C [4]: 93.2%
- viability, T/C [5]: 89.8%
- viability, T/C [6]: 40.9%
- viability, T/C [7]: 101%
- viability, T/C [8]: 98.9%
- viability, T/C [9]: 95.9%
- viability, T/C [10]: 96.3%
- viability, T/C [11]: 68.9%
- viability, T/C [12]: 35.3%
- viability, T/C [13]: 112%
- viability, T/C [14]: 102%
- viability, T/C [15]: 99.5%
- viability, T/C [16]: 93.4%
- viability, T/C [17]: 80.8%
- viability, T/C [18]: 43.3%
- viability, T/C [19]: 92.2%
- viability, T/C [20]: 98.8%
- viability, T/C [21]: 96.3%
- viability, T/C [22]: 88.5%
- viability, T/C [23]: 76.5%
- viability, T/C [24]: 45.6%
- viability, T/C [25]: 102%
- viability, T/C [26]: 95.8%
- viability, T/C [27]: 89.9%
- viability, T/C [28]: 86%
- viability, T/C [29]: 74.9%
- viability, T/C [30]: 34.8%
- viability, T/C [31]: 100%
- viability, T/C [32]: 79.9%
- viability, T/C [33]: 92.1%
- viability, T/C [34]: 65.6%
- viability, T/C [35]: 32.1%
- viability, T/C [36]: 21.6%

Structure (SMILES): O=c1[nH]cc(F)c(=O)[nH]1 + COC1C(OC(N)=O)C(O)C(Oc2ccc3c(O)c(NC(=O)c4ccc(O)c(CC=C(C)C)c4)c(=O)oc3c2C)OC1(C)C
- IC50 (second compound 0.0316 µM): 2.52 µM
- IC50 (second compound 0.1 µM): 2.29 µM
- IC50 (second compound 0.316 µM): 2.15 µM
- IC50 (second compound 1 µM): 2.25 µM
- IC50 (second compound 3.16 µM): 2.09 µM
- IC50 (second compound 10 µM): 2.1 µM
- viability, T/C [1]: 109%
- viability, T/C [2]: 100%
- viability, T/C [3]: 108%
- viability, T/C [4]: 108%
- viability, T/C [5]: 36.1%
- viability, T/C [6]: 16%
- viability, T/C [7]: 105%
- viability, T/C [8]: 107%
- viability, T/C [9]: 95.2%
- viability, T/C [10]: 99.6%
- viability, T/C [11]: 30.7%
- viability, T/C [12]: 14.9%
- viability, T/C [13]: 105%
- viability, T/C [14]: 94.9%
- viability, T/C [15]: 105%
- viability, T/C [16]: 87.9%
- viability, T/C [17]: 30.8%
- viability, T/C [18]: 13.1%
- viability, T/C [19]: 108%
- viability, T/C [20]: 98.9%
- viability, T/C [21]: 106%
- viability, T/C [22]: 107%
- viability, T/C [23]: 26.9%
- viability, T/C [24]: 13.1%
- viability, T/C [25]: 91.3%
- viability, T/C [26]: 96.7%
- viability, T/C [27]: 108%
- viability, T/C [28]: 88.2%
- viability, T/C [29]: 28.2%
- viability, T/C [30]: 13.8%
- viability, T/C [31]: 94.5%
- viability, T/C [32]: 91.9%
- viability, T/C [33]: 86%
- viability, T/C [34]: 83.7%
- viability, T/C [35]: 31.6%
- viability, T/C [36]: 18.1%

Structure (SMILES): CC1COCCN1c1cc(C2(S(C)(=N)=O)CC2)nc(-c2ccnc3[nH]ccc23)n1 (stereo unspecified) + Nc1ccc(C#CCN(C(=O)Cc2ncc(C(F)(F)F)cc2C(F)(F)F)c2ccc(F)cc2)nn1
- IC50 (second compound 0.0316 µM): > 10 µM
- IC50 (second compound 0.1 µM): > 10 µM
- IC50 (second compound 0.316 µM): > 10 µM
- IC50 (second compound 1 µM): > 10 µM
- IC50 (second compound 3.16 µM): > 10 µM
- IC50 (second compound 10 µM): 6.37 µM
- viability, T/C [1]: 104%
- viability, T/C [2]: 106%
- viability, T/C [3]: 98.7%
- viability, T/C [4]: 106%
- viability, T/C [5]: 95.5%
- viability, T/C [6]: 88.5%
- viability, T/C [7]: 107%
- viability, T/C [8]: 105%
- viability, T/C [9]: 101%
- viability, T/C [10]: 102%
- viability, T/C [11]: 105%
- viability, T/C [12]: 89.2%
- viability, T/C [13]: 105%
- viability, T/C [14]: 101%
- viability, T/C [15]: 101%
- viability, T/C [16]: 97.2%
- viability, T/C [17]: 105%
- viability, T/C [18]: 91.6%
- viability, T/C [19]: 102%
- viability, T/C [20]: 99%
- viability, T/C [21]: 102%
- viability, T/C [22]: 98.9%
- viability, T/C [23]: 101%
- viability, T/C [24]: 89.6%
- viability, T/C [25]: 103%
- viability, T/C [26]: 95%
- viability, T/C [27]: 102%
- viability, T/C [28]: 95.5%
- viability, T/C [29]: 101%
- viability, T/C [30]: 85.3%
- viability, T/C [31]: 98.3%
- viability, T/C [32]: 96.5%
- viability, T/C [33]: 98.7%
- viability, T/C [34]: 92.9%
- viability, T/C [35]: 81.6%
- viability, T/C [36]: 29.9%
